{"source": "patent US4605514A", "about": "“Des-4-leucine-calcitonin” (Armour Pharmaceutical Company, priority 1984, dated 1986)", "tested_on": "Rats", "test": "Biological assay of calcitonin analogs in vivo: reduction of serum calcium concentration vs synthetic salmon calcitonin standard, 2×2 parallel line assay", "conditions": "standard used in the assay; independently determined", "experimental": "Biological Assay Of Calcitonin Analogs In Vivo\nThe biological potency of des-4-leucine-salmon calcitonin was determined by comparing the reduction of serum calcium concentration which followed administration by graded doses of des-Leu^4 -SCT and synthetic salmon calcitonin standard. Rats were divided into four groups of seven animals, and each group was assigned at random to a dose of standard or test solution. Low and high doses were chosen from the linear portion of the dose-response curve. For the salmon calcitonin standard, the values were 0.7 and 2.1 ng. peptide/100 g. body weight (BW). This dose approximates 3 and […]/100 g. BW. Peptides were given by subcutaneous injection (0.2 ml/100 g. BW) and blood was withdrawn 1 hour later for serum calcium determination. Sera are processed and analyzed within two hours of collection. […]. Results were analyzed by a 2×2 parallel line assay [Gaddum, J. H., J. Pharm. Pharmacol., 6, 345 (1953)]. The standard salmon calcitonin used was independently determined to contain greater than 4,000 IU/mg. des-Leu^4 -SCT assayed at 5400 IU/mg."}
{"smiles": "CC(C)C[C@H](NC(=O)[C@H](CCCCN)NC(=O)CNC(=O)[C@H](CC(C)C)NC(=O)[C@@H](NC(=O)[C@@H]1CSSC[C@H](N)C(=O)N[C@@H](CO)C(=O)N[C@@H](CC(N)=O)C(=O)N[C@@H](CC(C)C)C(=O)N[C@@H](CO)C(=O)N[C@@H]([C@@H](C)O)C(=O)N1)C(C)C)C(=O)N[C@@H](CO)C(=O)N[C@@H](CCC(N)=O)C(=O)N[C@@H](CCC(=O)O)C(=O)N[C@@H](CC(C)C)C(=O)N[C@@H](Cc1c[nH]cn1)C(=O)N[C@@H](CCCCN)C(=O)N[C@@H](CC(C)C)C(=O)N[C@@H](CCC(N)=O)C(=O)N[C@H](C(=O)N[C@@H](Cc1ccc(O)cc1)C(=O)N1CCC[C@H]1C(=O)N[C@@H](CCCNC(=N)N)C(=O)N[C@H](C(=O)N[C@@H](CC(N)=O)C(=O)N[C@H](C(=O)NCC(=O)N[C@@H](CO)C(=O)NCC(=O)N[C@H](C(=O)N1CCC[C@H]1C(N)=O)[C@@H](C)O)[C@@H](C)O)[C@@H](C)O)[C@@H](C)O", "note": "[standard salmon calcitonin, Salmon calcitonin]", "values": [{"measurement": "potency content of the standard salmon calcitonin", "value": "greater than 4,000 IU/mg"}]}
